Laboratory results from article PMC6937325, “Tuning PFKFB3 Bisphosphatase Activity Through Allosteric Interference” (Scientific Reports, 2019).
Entries after “also recorded” stand apart in the source; their conditions may differ.

Assays:
[1] = target: T1, RED-NHS labeled recombinant PFKFB3 (Homo sapiens, UniProt Q16875); assay: Microscale thermophoresis (MST) binding assay; settings: for Binding Affinity: 100 nM RED-NHS labeled PFKFB3, 20 min at room temperature, Table 3; for KD: Table S3, list of synthesized peptides from VS
T1 construct: His tag (N, cleaved yes); made in house; host or cells: Escherichia coli BL21 (DE3) Plys
T1 sequence (Q16875 whole entry): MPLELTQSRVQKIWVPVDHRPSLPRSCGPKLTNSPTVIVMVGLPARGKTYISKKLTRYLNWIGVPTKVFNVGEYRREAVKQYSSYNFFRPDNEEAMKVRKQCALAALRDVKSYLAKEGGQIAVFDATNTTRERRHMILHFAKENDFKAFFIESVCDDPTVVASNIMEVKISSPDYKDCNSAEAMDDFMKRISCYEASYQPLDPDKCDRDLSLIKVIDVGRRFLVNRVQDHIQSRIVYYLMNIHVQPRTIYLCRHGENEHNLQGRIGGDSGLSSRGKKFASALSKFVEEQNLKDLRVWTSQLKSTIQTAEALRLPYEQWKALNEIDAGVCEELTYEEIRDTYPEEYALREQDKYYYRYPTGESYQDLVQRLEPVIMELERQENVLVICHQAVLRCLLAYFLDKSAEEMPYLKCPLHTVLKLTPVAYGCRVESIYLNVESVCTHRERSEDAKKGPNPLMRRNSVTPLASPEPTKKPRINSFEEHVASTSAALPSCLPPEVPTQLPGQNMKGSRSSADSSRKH
Method: The PFKFB3 plasmid was provided by Prof. Yong-Hwan Lee from Louisiana State University. The His-tagged human inducible bifunctional enzyme (GenBank code: AF056320.1) was expressed in Escherichia coli BL21 (DE3) Plys as reported previously. The PFKFB3 protein was purified using nickel affinity columns and the N-terminal His tag was removed using a standard protocol. After the treatment with thrombin the protein was eluted with an anion-exchange column. The pure protein was concentrated to 2–10 mg/mL and stored in 20 mM Tris HCl pH 8.0, 10 mM NaPi, 5 mM β-mercaptoethanol and 5% glycerol.
The dissociation constant was determined using Nanotemper microscale thermophoresis (MST)[38]. In a typical experiment, a compound was dissolved in MST buffer and mixed with 100 nM RED-NHS labeled recombinant PFKFB3 in 1:1 ratio. The mixture was incubated at room temperature for 20 min. and a full MST measurement was performed. Data were analyzed with Nanotemper software (https://nanotempertech.com/monolith/).

[2] = target: T2, PFKFB3 bisphosphatase (Homo sapiens, UniProt Q16875); assay: PFKFB3 bisphosphatase activity by LC-MS/MS quantitation of F6P; type: biochemical; settings: for Effect on bisphosphatase activity / substrate conversion rate vs enzyme alone: Dunnett's multiple comparisons test (two-way ANOVA); for h, Hill coefficient (PFKFB3 in presence of compound) / Vmax (Hill equation, PFKFB3 in presence of compound): Hill fit of bisphosphatase kinetics; for h, Hill coefficient (PFKFB3 in presence of compound): enzyme alone 2.03; for Vmax (Hill equation, PFKFB3 in presence of compound): maximum velocity at enzyme saturation, enzyme alone 0.16; for Enzyme velocity: enzyme 100 nM, compound at 50 µM or equal to its KD, 18 h at 37 °C, Tris buffer pH 8, LC-MS/MS of F6P; for Khalf (Hill equation, PFKFB3 in presence of compound): substrate concentration giving half of maximum velocity, enzyme alone 21.51, in µM (unit assumed)
T2 construct: His tag (N, cleaved yes); made in house; host or cells: Escherichia coli BL21 (DE3) Plys
T2 sequence (Q16875 whole entry): as above
Method: HPLC grade water (18 MΩ) was prepared with a Milli-Q purification system (Millipore, Milan, IT). Ammonium formate, fructose-6-phosphate (F6P), Tris HCl, glycerol, 2-mercaptoethanol, sodium phosphate and Amicon-ultra centrifugal filters (30 kDa) were purchased from Sigma Aldrich. F2,6BP was kindly provided by Prof. Lisardo Boscá from Spanish National Research Council in Madrid, Spain. Compound AZ 33 was provided by Carlo DeDominicis, University of Aberdeen. Phosphatase activity of PFKFB3 was measured by quantitation of the reaction product (i.e. F6P) by means of liquid chromatography tandem mass spectrometry. Enzyme reaction rate was determined after 18 h of incubation at 37 °C in sterile (0.22 µm filtered) Tris buffer (20 mM Tris-HCl pH 8; 10 mM sodium phosphate; 5 mM 2-mercaptoethanol and 5% of glycerol) at a final enzyme concentration of 100 nM. Both the enzyme and the substrate (i.e. fructose-2,6-bisphosphate, F2,6BP) were pre-warmed at 37 °C for five min before starting the kinetics by spiking the substrate into the enzyme solution. To plot the enzyme kinetics, the reaction rate was measured in independent experiments at different concentration of substrate (i.e. 5, 10, 15, 20, 25, 30, 40 and 50 µM). Diafiltration on amicon-ultra filters (30 kDa MWCO) was used to stop the reactions. Both the residual substrate and the product were collected in the filtrate, while the enzyme was retained by the filter. The same protocol was used to measure the effect of ligands on enzyme phosphatase activity. For such a purpose the reaction rate was measured at the same substrate concentrations, but the enzyme was incubated with the compound and pre-warmed before starting the kinetics. Compounds were incubated with the enzyme at a concentration 50 µM or equal to their KD, if available. Independent analyses were done without the enzyme (i.e. controls) to assess any degradation of the substrate in the same experimental condition used for the enzyme kinetics. The concentration of the […] produced by the kinetics was determined by interpolation with a calibration curve obtained by the analysis of fructose-6-phosphate standards prepared in a concentration range between 0.5 µM and 50 µM. The velocity was calculated as nanomoles of F6P produced in one min by a nanomole of PFKFB3, subtracting the nanomoles of F6P produced by self-degradation of the substrate from the nanomoles of F6P produced by the enzyme kinetic.
Quantitation of F6P produced was provided by a Surveyor HPLC system connected to a TSQ Quantum Ultra triple quadrupole mass spectrometer by a Finnigan IonMax electrospray ionization (ESI) source assembled with a high flow stainless steel emitter (Thermo Scientific, Rodano, MI, Italy). Filtrate containing the kinetics products were diluted 1:4 in water and placed into the autosampler rack, which was cooled at 8 °C to prevent sample degradation during analyses. […] Table 1 reports the mobile phases and gradient program used for the elution.
The flow from the column was directly sprayed into the mass spectrometer with no further splitting. Nebulization and ionization were achieved by 70 units of sheath gas, 25 units of auxiliary gas, a capillary temperature of 270 °C and a spray voltage of −4.5 kV. The analyzer was set to scan the negative ions reported in Table 2 in Multiple Reaction Monitoring mode (MRM), with a scan time of 0.05 seconds and a resolution of 0.5 m/z for both the first and the third quadrupoles. The MRM transitions reported in Table 2 were previously optimized in a semi-automatic mode to achieve the best instrumental response and selectivity for fructose-6-phosphate, by flow injection of a standard solution.
In order to determine the effect of the PFKFB3-binding compounds on the bisphosphatase activity, a LC-MS/MS analytical method was developed. Firstly, separate kinetics were measured for the enzyme alone or equilibrated with compounds 4–8. […]

[3] = substrate F2,6BP 20 µM, asterisks = significance vs enzyme alone (two-way ANOVA, Dunnett)
[4] = substrate F2,6BP 25 µM, asterisks = significance vs enzyme alone
[5] = substrate F2,6BP 30 µM, asterisks = significance vs enzyme alone
[6] = substrate F2,6BP 40 µM, asterisks = significance vs enzyme alone
[7] = substrate F2,6BP 50 µM, asterisks = significance vs enzyme alone

KD [1] | Effect on bisphosphatase activity / substrate conversion rate vs enzyme alone [2] | h, Hill coefficient (PFKFB3 in presence of compound) [2] | Vmax (Hill equation, PFKFB3 in presence of compound) [2] | Khalf (Hill equation, PFKFB3 in presence of compound) [2] | Compound | Binding Affinity [1] | Enzyme velocity [2, 3] | Enzyme velocity [2, 4] | Enzyme velocity [2, 5] | Enzyme velocity [2, 6] | Enzyme velocity [2, 7]
No binding | no significant variations | 1.95 | 0.19 | 28.12 | SFLLRN-CONH2 [Compound 7] | not able to bind the enzyme; also recorded: No evidence of binding | 0.07 ± 0.01 nmol/min of F6P per nmol of enzyme | 0.07 ± 0.04 nmol/min of F6P per nmol of enzyme | 0.11 ± 0.04 nmol/min of F6P per nmol of enzyme | 0.14 ± 0.01 nmol/min of F6P per nmol of enzyme | 0.14 ± 0.01 nmol/min of F6P per nmol of enzyme
No binding | no significant variations | 2.24 | 0.21 | 32.83 | Trp-Gly-Tyr [Compound 8] | not able to bind the enzyme; also recorded: No evidence of binding | 0.06 ± 0.03 nmol/min of F6P per nmol of enzyme | 0.05 ± 0.00 nmol/min of F6P per nmol of enzyme | 0.10 ± 0.01 nmol/min of F6P per nmol of enzyme | 0.14 ± 0.05 nmol/min of F6P per nmol of enzyme | 0.14 ± 0.04 nmol/min of F6P per nmol of enzyme

Compound | KD [1] | Effect on bisphosphatase activity / substrate conversion rate vs enzyme alone [2] | h, Hill coefficient (PFKFB3 in presence of compound) [2] | Vmax (Hill equation, PFKFB3 in presence of compound) [2] | Khalf (Hill equation, PFKFB3 in presence of compound) [2] | Binding Affinity [1] | Enzyme velocity [2, 3] | Enzyme velocity [2, 4] | Enzyme velocity [2, 5] | Enzyme velocity [2, 6] | Enzyme velocity [2, 7]
CC(C)C[C@H](NC(=O)[C@H](Cc1ccccc1)NC(=O)CNC(=O)[C@H](CO)NC(=O)[C@@H](N)Cc1ccc(O)cc1)C(=O)N[C@H](C(=O)O)[C@@H](C)O [Compound 4] | – | no significant variations | 2.39 | 0.18 | 26.54 | – | 0.05 ± 0.03 nmol/min of F6P per nmol of enzyme | 0.07 ± 0.04 nmol/min of F6P per nmol of enzyme | 0.12 ± 0.03 nmol/min of F6P per nmol of enzyme | 0.13 ± 0.04 nmol/min of F6P per nmol of enzyme | 0.14 ± 0.01 nmol/min of F6P per nmol of enzyme
